Test results: US20170000133A1, “BENZOXABOROLE FUNGICIDES” (SYNGENTA PARTICIPATIONS AG, priority 2013, published 2017)

Tests used:
[1] = system: Monographella nivalis (Microdochium nivale); experiment: Monographella nivalis (Microdochium nivale) / liquid culture (foot rot cereals); assay type: cell-based; conditions: PDB potato dextrose broth, 24° C., 4-5 days after application, read-out: disease control (inhibition of growth determined photometrically)
[2] = system: Puccinia recondita f. sp. tritici; experiment: Puccinia recondita f. sp. tritici / wheat / leaf disc preventative (brown rust); assay type: in vivo; conditions: foliar, wheat leaf segments cv Kanzler, inoculated 1 day after application, assessed 7-9 days after application, read-out: disease control
Source text: 3. Puccinia recondita f. sp. tritici/Wheat/Leaf Disc Preventative (Brown Rust): Wheat leaf segments cultivated variety (cv) Kanzler were placed on agar in 24-well plates and sprayed with formulated test compound diluted in water at an application rate of 200 ppm. The leaf disks were inoculated with a spore suspension of the fungus 1 day after application.

Gaeumannomyces graminis = Gaeumannomyces graminis / liquid culture (take-all of cereals); assay type: cell-based; conditions: PDB potato dextrose broth, 24° C., 4-5 days after application, read-out: disease control (inhibition of growth determined photometrically)
How it was run: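 Growth inhibition measured photometrically 4–5 days post-application, following incubation at 24 °C. Test compound, applied from DMSO at 200 ppm, mixed with fungal mycelial fragments in potato dextrose broth.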

[3] = system: Glomerella lagenarium (Colletotrichum lagenarium); experiment: Glomerella lagenarium (Colletotrichum lagenarium) / liquid culture (anthracnose); assay type: cell-based; conditions: Colletotrichum orbiculare, PDB potato dextrose broth, 24° C., 3-4 days after application, read-out: disease control (inhibition of growth measured photometrically)
How it was run: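 Compound was applied at 200 ppm from DMSO solution, then potato dextrose broth carrying cryostored fungal spores was added. Growth inhibition was measured by photometry after 3-4 days of incubation at 24° C.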

[4] = system: Mycosphaerella arachidis (Cercospora arachidicola); experiment: Mycosphaerella arachidis (Cercospora arachidicola) / liquid culture (early leaf spot); assay type: cell-based; conditions: PDB potato dextrose broth, 24° C., 4-5 days after application, read-out: disease control (inhibition of growth determined photometrically)
How it was run: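 Test compound, applied at 200 ppm from DMSO solution, was combined with spore-containing potato dextrose broth. Photometric growth inhibition was scored after 4-5 days at 24° C.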

Fusarium culmorum = experiment: microbe, parasite or virus in culture; assay type: cell-based; conditions: read-out: disease control (inhibition of growth determined visually)
Plasmopara viticola = experiment: whole plant or invertebrate; assay type: in vivo; conditions: foliar, read-out: disease control
Pythium ultimum = Pythium ultimum / liquid culture (seedling damping off); assay type: cell-based; conditions: Globisporangium ultimum; 200 ppm; potato dextrose broth, 24° C., 2-3 days after application; read-out: disease control (inhibition of growth determined photometrically)
[5] = system: Mycosphaerella graminicola (Septoria tritici); experiment: Mycosphaerella graminicola (Septoria tritici) / liquid culture (Septoria blotch); assay type: cell-based; conditions: Zymoseptoria tritici, PDB potato dextrose broth, 24° C., 4-5 days after application, read-out: disease control (inhibition of growth determined photometrically)
How it was run: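 Growth inhibition was read photometrically 4-5 days after application, following incubation at 24° C of fungal conidia in potato dextrose broth over test compound (200 ppm, from DMSO solution) in microtiter plates.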

[6] = system: Thanatephorus cucumeris (Rhizoctonia solani); experiment: Thanatephorus cucumeris (Rhizoctonia solani) / liquid culture (foot rot, damping-off); assay type: cell-based; conditions: PDB potato dextrose broth, 24° C., 3-4 days after application, read-out: disease control (inhibition of growth determined photometrically)
How it was run: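 Photometric growth-inhibition readout taken 3-4 days after application, with cultures incubated at 24 °C. Test compound was applied at 200 ppm from DMSO solution to R. solani mycelial fragments in PDB.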

Phytophthora infestans = experiment: whole plant or invertebrate; assay type: in vivo; conditions: in Solanum lycopersicum, foliar, read-out: disease control
Sclerotinia sclerotiorum = Sclerotinia sclerotiorum / liquid culture (cottony rot); assay type: cell-based; conditions: PDB potato dextrose broth, 24° C., 3-4 days after application, read-out: disease control (inhibition of growth determined visually)
Experimental: 18. Sclerotinia sclerotiorum/Liquid Culture (Cottony Rot): Mycelia fragments of a newly grown liquid culture of the fungus were directly mixed into nutrient broth (PDB potato dextrose broth). After placing a (DMSO) solution of the test compounds into a microtiter plate (96-well format) the nutrient broth containing the fungal material was added. The test plates were incubated at 24° C. and the inhibition of growth was determined visually 3-4 days after application.

[7] = system: Botryotinia fuckeliana (Botrytis cinerea); experiment: Botryotinia fuckeliana (Botrytis cinerea) / liquid culture (gray mould); assay type: cell-based; conditions: Vogels broth, 24° C., 3-4 days after application, read-out: disease control (inhibition of growth determined photometrically)
Experimental: 10. Botryotinia fuckeliana (Botrytis cinerea)/Liquid Culture (Gray Mould): Conidia of the fungus from cryogenic storage were directly mixed into nutrient broth (Vogels broth). After placing a DMSO solution of test compound into a 96-well microtiter plate at an application rate of 200 ppm, the nutrient broth containing the fungal spores was added. The test plates were incubated at 24° C. and the inhibition of growth was determined photometrically 3-4 days after application.

O=C(OCCc1ccc(Cl)cc1Cl)c1ccc2c(c1)B(O)OC2 [Compound 312]
≥ 80%: inhibition at 200 ppm [1] | pest or weed control at 200 ppm [2] | inhibition at 200 ppm (Gaeumannomyces graminis)

O=C(OCc1ccsc1)c1cc2c(cc1F)COB2O [Compound 441]
≥ 80%: inhibition at 200 ppm [3] | inhibition at 200 ppm [4] | inhibition at 200 ppm (Fusarium culmorum) | pest or weed control at 200 ppm (Plasmopara viticola) | inhibition at 200 ppm (Pythium ultimum) | inhibition at 200 ppm [1] | inhibition at 200 ppm [5] | pest or weed control at 200 ppm [2] | inhibition at 200 ppm [6]
128 to 130 °C: melting point

COC(=O)c1sccc1NC(=O)c1cc2c(cc1Cl)COB2O [Compound 169]
267 to 269 °C: melting point
≥ 80%: inhibition at 200 ppm [3] | pest or weed control at 200 ppm (Plasmopara viticola) | inhibition at 200 ppm [1] | inhibition at 200 ppm [5] | pest or weed control at 200 ppm [2]

O=C(OCC1CCSCC1)c1cc2c(cc1F)COB2O [Compound 380]
≥ 80%: inhibition at 200 ppm [3] | inhibition at 200 ppm [4] | pest or weed control at 200 ppm (Plasmopara viticola) | inhibition at 200 ppm (Pythium ultimum) | inhibition at 200 ppm [1] | pest or weed control at 200 ppm [2] | inhibition at 200 ppm [6]

O=C(OCc1cccc2ccccc12)c1cc2c(cc1Cl)COB2O [Compound 207]
≥ 80%: inhibition at 200 ppm (Pythium ultimum) | inhibition at 200 ppm [1] | pest or weed control at 200 ppm (Phytophthora infestans) | pest or weed control at 200 ppm [2] | inhibition at 200 ppm (Gaeumannomyces graminis)

C[Si](C)(C)COC(=O)c1ccc2c(c1)B(O)OC2 [Compound 367]
≥ 80%: inhibition at 200 ppm [3] | pest or weed control at 200 ppm (Plasmopara viticola) | inhibition at 200 ppm (Pythium ultimum) | inhibition at 200 ppm [1] | inhibition at 200 ppm [5] | pest or weed control at 200 ppm [2] | inhibition at 200 ppm (Gaeumannomyces graminis) | inhibition at 200 ppm [6]

O=C(OCCc1ccc(Cl)cc1Cl)c1cc2c(cc1F)COB2O [Compound 370]
≥ 80%: inhibition at 200 ppm (Pythium ultimum) | inhibition at 200 ppm [1] | inhibition at 200 ppm [5] | pest or weed control at 200 ppm [2] | inhibition at 200 ppm (Gaeumannomyces graminis) | inhibition at 200 ppm [6]

CCCCCCCCCCOC(=O)c1ccc2c(c1)B(O)OC2 [Compound 331]
≥ 80%: inhibition at 200 ppm [4] | inhibition at 200 ppm (Pythium ultimum) | inhibition at 200 ppm [5] | pest or weed control at 200 ppm [2] | inhibition at 200 ppm [6]

C=CCC(OC(=O)c1cc2c(cc1F)COB2O)C(=O)OC (stereo not shown) [Compound 410]
≥ 80%: inhibition at 200 ppm (Sclerotinia sclerotiorum) | pest or weed control at 200 ppm (Plasmopara viticola) | inhibition at 200 ppm (Pythium ultimum) | inhibition at 200 ppm [1] | inhibition at 200 ppm (Gaeumannomyces graminis) | inhibition at 200 ppm [6]

Cc1csc(NC(=O)c2cc3c(cc2Cl)COB3O)n1 [Compound 147]
≥ 80%: inhibition at 200 ppm [3] | inhibition at 200 ppm (Sclerotinia sclerotiorum) | inhibition at 200 ppm [4] | inhibition at 200 ppm (Pythium ultimum) | inhibition at 200 ppm [1]

C#CC(CC)OC(=O)c1cc2c(cc1Cl)COB2O (stereo not shown) [Compound 201]
≥ 80%: inhibition at 200 ppm [3] | inhibition at 200 ppm [7] | pest or weed control at 200 ppm (Plasmopara viticola) | inhibition at 200 ppm (Pythium ultimum) | inhibition at 200 ppm [1] | inhibition at 200 ppm [5] | inhibition at 200 ppm (Gaeumannomyces graminis)

O=C(OCC#Cc1ccccc1)c1cc2c(cc1F)COB2O [Compound 422]
≥ 80%: inhibition at 200 ppm [7] | inhibition at 200 ppm [4] | inhibition at 200 ppm (Fusarium culmorum) | inhibition at 200 ppm (Pythium ultimum) | inhibition at 200 ppm [1] | inhibition at 200 ppm [5] | inhibition at 200 ppm (Gaeumannomyces graminis) | inhibition at 200 ppm [6]
